Source: PMC5594043, “CYP79 P450 monooxygenases in gymnosperms: CYP79A118 is associated with the formation of taxiphyllin in Taxus baccata” (Plant Molecular Biology, 2017)

Target: T1, CYP79A118 full-length (CYP79A118-M1) (Taxus baccata, UniProt A0A288W866)
T1 construct: full-length ORF; yeast WAT11 microsomes with Arabidopsis CPR1; pESC-Leu2d
Assay type: biochemical
Details: 1 mM substrate; NADPH 1 mM; Arabidopsis CPR1 in microsomes; 75 mM sodium phosphate pH 7.0; 25 °C; product indole-3-acetaldoxime

N[C@@H](Cc1c[nH]c2ccccc12)C(=O)O [Trp, L-tryptophan]
LC-MS/MS of aldoxime product, yeast microsomes: the full-length protein as well as the truncated version showed enzymatic activity with the aromatic
